Source: ChEMBL document CHEMBL3779781, “New direct inhibitors of InhA with antimycobacterial activity based on a tetrahydropyran scaffold” (Eur J Med Chem, 2016)

Tests used:
[1] = test system: Mycobacterium tuberculosis; experiment: Ratio of MIC for isoniazid resistant Mycobacterium tuberculosis H37Rv clinical isolate 4 harboring katG S315T mutant to MIC for Mycobacterium tuberculosis H37Rv; type: functional
[2] = test system: Mycobacterium tuberculosis; experiment: Antimycobacterial activity against isoniazid resistant Mycobacterium tuberculosis H37Rv clinical isolate 4 harboring katG S315T mutant; type: functional, H37Rv isolate 4
[3] = test system: Mycobacterium tuberculosis; experiment: Ratio of MIC for isoniazid resistant Mycobacterium tuberculosis H37Rv clinical isolate 7 harboring katG S315T mutant to MIC for Mycobacterium tuberculosis H37Rv; type: functional
[4] = test system: Mycobacterium tuberculosis; experiment: Antimycobacterial activity against isoniazid resistant Mycobacterium tuberculosis H37Rv clinical isolate 6 harboring InhA promoter C-15T mutant; type: functional, H37Rv isolate 6
[5] = test system: Mycobacterium tuberculosis; experiment: Ratio of MIC for isoniazid resistant Mycobacterium tuberculosis H37Rv clinical isolate 3 harboring InhA promoter C-15T mutant to MIC for Mycobacterium tuberculosis H37Rv; type: functional
[6] = test system: Mycobacterium tuberculosis; experiment: Antimycobacterial activity against isoniazid resistant Mycobacterium tuberculosis H37Rv clinical isolate 7 harboring katG S315T mutant; type: functional, H37Rv isolate 7
[7] = test system: Mycobacterium tuberculosis; experiment: Antimycobacterial activity against isoniazid resistant Mycobacterium tuberculosis H37Rv clinical isolate 1 harboring katG S315T mutant; type: functional, H37Rv isolate 1
[8] = test system: Mycobacterium tuberculosis; experiment: Ratio of MIC for isoniazid resistant Mycobacterium tuberculosis H37Rv clinical isolate 5 harboring katG S315T mutant to MIC for Mycobacterium tuberculosis H37Rv; type: functional
[9] = test system: Mycobacterium tuberculosis; experiment: Antimycobacterial activity against isoniazid resistant Mycobacterium tuberculosis H37Rv clinical isolate 3 harboring InhA promoter C-15T mutant; type: functional, H37Rv isolate 3
[10] = test system: Mycobacterium tuberculosis; experiment: Ratio of MIC for isoniazid resistant Mycobacterium tuberculosis H37Rv clinical isolate 2 harboring InhA promoter C-15T mutant to MIC for Mycobacterium tuberculosis H37Rv; type: functional
[11] = test system: Mycobacterium tuberculosis; experiment: Ratio of MIC for isoniazid resistant Mycobacterium tuberculosis H37Rv clinical isolate 6 harboring InhA promoter C-15T mutant to MIC for Mycobacterium tuberculosis H37Rv; type: functional
[12] = test system: Mycobacterium tuberculosis; experiment: Ratio of MIC for isoniazid resistant Mycobacterium tuberculosis H37Rv clinical isolate 1 harboring katG S315T mutant to MIC for Mycobacterium tuberculosis H37Rv; type: functional
[13] = test system: Mycobacterium tuberculosis; experiment: Antimycobacterial activity against isoniazid resistant Mycobacterium tuberculosis H37Rv clinical isolate 2 harboring InhA promoter C-15T mutant; type: functional, H37Rv isolate 2
[14] = test system: Mycobacterium tuberculosis; experiment: Antimycobacterial activity against isoniazid resistant Mycobacterium tuberculosis H37Rv clinical isolate 5 harboring katG S315T mutant; type: functional, H37Rv isolate 5

NNC(=O)c1ccncc1 [ISONIAZID]
Ratio [1]: 50 | MIC [2]: 25 µg/mL | Ratio [3]: 400 | MIC [4]: 1.56 µg/mL | Ratio [5]: 3.1 | MIC [6]: 200 µg/mL | MIC [7]: 50 µg/mL | Ratio [8]: 25 | MIC [9]: 1.56 µg/mL | Ratio [10]: 6.25 | Ratio [11]: 3.1 | Ratio [12]: 100 | MIC [13]: 3.1 µg/mL | MIC [14]: 12.5 µg/mL

Cc1cc(C)n(Cc2ccc(C(=O)NCC3(c4nc(-c5ccccc5)cs4)CCOCC3)cc2)n1
Ratio [1]: 1 | MIC [2]: 7.8 µM | Ratio [3]: 2 | MIC [4]: 62.5 µM | Ratio [5]: 8 | MIC [6]: 15.6 µM | MIC [7]: 15.6 µM | Ratio [8]: 8 | MIC [9]: 62.5 µM | Ratio [10]: 8 | Ratio [11]: 8 | Ratio [12]: 2 | MIC [13]: 62.5 µM | MIC [14]: 62.5 µM
